Measured values taken from US20240109917A1 (ACTELION PHARMACEUTICALS LTD, priority 2020, published 2024).

What was measured:
[1] = target: His6-TEV-PDGFRβ (557-1016) (Homo sapiens (Human), UniProt P09619); test: PDGFRβ HTRF Assay; type: biochemical; settings: read-out: PDGFR HTRF IC50
Method in brief: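 HTRF KinEASE-TK readout (665/620 nm ratio) of TK-biotin substrate phosphorylation by His-tagged PDGFRβ kinase domain. Enzyme and inhibitor preincubated 30 min, then ATP/substrate added for 3 h at room temperature before 60 min EDTA quench/detection.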

[2] = target: Tb-labeled inactive PDGFRβ (Homo sapiens (Human), UniProt P09619); test: PDGFRβ LanthaScreen Assay; type: binding; settings: read-out: PDGFR Lantha IC50
Chain of Tb-labeled inactive PDGFRβ (P09619 33-1106): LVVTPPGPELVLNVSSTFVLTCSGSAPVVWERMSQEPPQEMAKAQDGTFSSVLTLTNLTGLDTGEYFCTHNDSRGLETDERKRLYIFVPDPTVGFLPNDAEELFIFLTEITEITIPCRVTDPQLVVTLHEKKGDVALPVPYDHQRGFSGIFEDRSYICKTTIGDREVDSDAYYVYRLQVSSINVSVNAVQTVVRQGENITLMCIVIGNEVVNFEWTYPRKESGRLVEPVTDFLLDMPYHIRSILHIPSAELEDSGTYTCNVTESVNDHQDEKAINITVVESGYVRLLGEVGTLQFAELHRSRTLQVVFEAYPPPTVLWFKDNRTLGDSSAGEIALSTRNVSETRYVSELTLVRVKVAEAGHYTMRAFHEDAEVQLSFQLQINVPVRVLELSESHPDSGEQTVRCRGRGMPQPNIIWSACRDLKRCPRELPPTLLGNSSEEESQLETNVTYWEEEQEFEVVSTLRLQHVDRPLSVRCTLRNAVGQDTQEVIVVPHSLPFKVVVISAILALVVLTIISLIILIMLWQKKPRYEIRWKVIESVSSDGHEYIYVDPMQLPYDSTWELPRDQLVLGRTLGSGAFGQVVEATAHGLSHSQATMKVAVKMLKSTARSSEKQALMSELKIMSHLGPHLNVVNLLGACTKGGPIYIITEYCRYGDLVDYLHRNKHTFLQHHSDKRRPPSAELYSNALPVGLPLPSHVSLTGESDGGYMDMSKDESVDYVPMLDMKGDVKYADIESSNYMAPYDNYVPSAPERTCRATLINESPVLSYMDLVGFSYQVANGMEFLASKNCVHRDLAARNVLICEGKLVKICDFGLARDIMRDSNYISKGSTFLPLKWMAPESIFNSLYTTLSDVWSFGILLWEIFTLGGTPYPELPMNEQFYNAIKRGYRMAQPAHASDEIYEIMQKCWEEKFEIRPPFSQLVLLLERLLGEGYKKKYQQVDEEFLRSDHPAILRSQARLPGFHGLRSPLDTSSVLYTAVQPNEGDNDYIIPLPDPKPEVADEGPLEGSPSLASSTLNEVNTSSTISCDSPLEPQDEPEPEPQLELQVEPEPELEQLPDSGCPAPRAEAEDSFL

Chain of His6-TEV-PDGFRβ (557-1016) (P09619 557-1016): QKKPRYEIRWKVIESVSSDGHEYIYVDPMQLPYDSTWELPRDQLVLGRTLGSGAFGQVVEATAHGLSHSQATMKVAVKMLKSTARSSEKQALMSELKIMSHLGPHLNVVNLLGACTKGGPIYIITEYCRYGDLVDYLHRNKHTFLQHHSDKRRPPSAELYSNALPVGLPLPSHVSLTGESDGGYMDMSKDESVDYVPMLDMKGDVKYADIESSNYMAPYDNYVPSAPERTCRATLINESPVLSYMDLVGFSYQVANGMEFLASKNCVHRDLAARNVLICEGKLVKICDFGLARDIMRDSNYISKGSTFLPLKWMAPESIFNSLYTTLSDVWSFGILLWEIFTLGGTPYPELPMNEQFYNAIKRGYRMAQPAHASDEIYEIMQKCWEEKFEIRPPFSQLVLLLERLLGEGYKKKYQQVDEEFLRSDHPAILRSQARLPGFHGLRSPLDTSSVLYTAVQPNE

Cc1ncc(NC(=O)CN2CC(C)(C)C2)cc1NC(=O)c1cnn2cc(-c3cncnc3C)sc12 [Example 398, N-(5-(2-(3,3-dimethylazetidin-1-yl)acetamido)-2-methylpyridin-3-yl)-2-(4-methylpyrimidin-5-yl)pyrazolo[5,1-b]thiazole-7-carboxamide]
IC50 [1]: 6.8 nM | IC50 [2]: 181 nM

Cc1ncc(NC(=O)C2CN(C(C)C)C2)cc1NC(=O)c1cnn2cc(-c3cnn(C)c3C)sc12 [Example 357, 2-(1,5-dimethyl-1H-pyrazol-4-yl)-N-(5-(1-isopropylazetidine-3-carboxamido)-2-methylpyridin-3-yl)pyrazolo[5,1-b]thiazole-7-carboxamide]
IC50 [1]: 0.2 nM | IC50 [2]: 4.5 nM

Cc1cnn(C)c1-c1cn2ncc(C(=O)Nc3cc(NC(=O)CN4CC(C)(C)C4)cnc3C)c2s1 [Example 389, 2-(1,4-dimethyl-1H-pyrazol-5-yl)-N-(5-(2-(3,3-dimethylazetidin-1-yl)acetamido)-2-methylpyridin-3-yl)pyrazolo[5,1-b]thiazole-7-carboxamide]
IC50 [1]: 0.6 nM | IC50 [2]: 7.5 nM

COCCn1cc(-c2cn3ncc(C(=O)Nc4cc(NC(=O)CN5CCCC6(CC6)C5)cnc4C)c3s2)cn1 [Example 335, N-(5-(2-(5-azaspiro[2.5]octan-5-yl)acetamido)-2-methylpyridin-3-yl)-2-(1-(2-methoxyethyl)-1H-pyrazol-4-yl)pyrazolo[5,1-b]thiazole-7-carboxamide]
IC50 [1]: 0.4 nM | IC50 [2]: 3 nM

COCCn1cc(-c2cn3ncc(C(=O)Nc4cc(NC(=O)CN5CCCCC5)cnc4C)c3s2)cn1 [Example 338, 2-(1-(2-methoxyethyl)-1H-pyrazol-4-yl)-N-(2-methyl-5-(2-(piperidin-1-yl)acetamido)pyridin-3-yl)pyrazolo[5,1-b]thiazole-7-carboxamide]
IC50 [1]: 0.4 nM | IC50 [2]: 4.8 nM

Cc1ncc(NC(=O)[C@H]2CCCN2C(C)C)cc1NC(=O)c1cnn2cc(-c3cnn4c3OCCC4)sc12 [Example 347, (R)-2-(6,7-dihydro-5H-pyrazolo[5,1-b][1,3]oxazin-3-yl)-N-(5-(1-isopropylpyrrolidine-2-carboxamido)-2-methylpyridin-3-yl)pyrazolo[5,1-b]thiazole-7-carboxamide]
IC50 [1]: 0.5 nM | IC50 [2]: 6 nM

CCc1ncccc1-c1cn2ncc(C(=O)Nc3cc(NC(=O)CN4CC(C)(C)C4)cnc3C)c2s1 [Example 391, N-(5-(2-(3,3-dimethylazetidin-1-yl)acetamido)-2-methylpyridin-3-yl)-2-(2-ethylpyridin-3-yl)pyrazolo[5,1-b]thiazole-7-carboxamide]
IC50 [1]: 0.9 nM | IC50 [2]: 18.4 nM

Cc1ncc(NC(=O)C2CN(C(C)C)C2)cc1NC(=O)c1cnn2cc(-c3cn(C)nc3C)sc12 [Example 354, 2-(1,3-dimethyl-1H-pyrazol-4-yl)-N-(5-(1-isopropylazetidine-3-carboxamido)-2-methylpyridin-3-yl)pyrazolo[5,1-b]thiazole-7-carboxamide]
IC50 [1]: 0.2 nM | IC50 [2]: 4.3 nM

COc1ncccc1-c1cn2ncc(C(=O)Nc3cc(NC(=O)CN4CC(C)(OC)C4)cnc3C)c2s1 [Example 396, N-(5-(2-(3-methoxy-3-methylazetidin-1-yl)acetamido)-2-methylpyridin-3-yl)-2-(2-methoxypyridin-3-yl)pyrazolo[5,1-b]thiazole-7-carboxamide]
IC50 [1]: 0.3 nM | IC50 [2]: 1.8 nM

Cc1ncc(NC(=O)CN2CCCC23CCC3)cc1NC(=O)c1cnn2cc(-c3cnn(CCO)c3)sc12 [Example 29, N-(5-(2-(5-azaspiro[3.4]octan-5-yl)acetamido)-2-methylpyridin-3-yl)-2-(1-(2-hydroxyethyl)-1H-pyrazol-4-yl)pyrazolo[5,1-b]thiazole-7-carboxamide]
IC50 [1]: 0.4 nM | IC50 [2]: 3.4 nM

Cc1ncc(NC(=O)CN2CCC[C@@H]2C)cc1NC(=O)c1cnn2cc(-c3cnn(C)c3)sc12 [Example 27, (S)-2-(1-methyl-1H-pyrazol-4-yl)-N-(2-methyl-5-(2-(2-methyl-pyrrolidin-1-yl)acetamido)pyridin-3-yl)pyrazolo[5,1-b]thiazole-7-carboxamide]
IC50 [1]: 0.9 nM | IC50 [2]: 16.2 nM

COCCn1cc(-c2cn3ncc(C(=O)Nc4cc(NC(=O)[C@H]5CCCN5C(C)C)cnc4C)c3s2)cn1 [Example 344, (R)—N-(5-(1-isopropylpyrrolidine-2-carboxamido)-2-methylpyridin-3-yl)-2-(1-(2-methoxyethyl)-1H-pyrazol-4-yl)pyrazolo[5,1-b]thiazole-7-carboxamide]
IC50 [1]: 4.3 nM | IC50 [2]: 67.5 nM

Cc1ncc(NC(=O)CN2C[C@H](C)O[C@@H](C)C2)cc1NC(=O)c1cnn2cc(-c3cnc(N)c(F)c3)sc12 (relative stereo) [Example 372, 2-(6-amino-5-fluoropyridin-3-yl)-N-(5-(2-(trans-2,6-dimethylmorpholino)acetamido)-2-methylpyridin-3-yl)pyrazolo[5,1-b]thiazole-7-carboxamide]
IC50 [1]: 0.6 nM | IC50 [2]: 7.7 nM

Cc1ncc(NC(=O)C[C@H]2CCCN2C(C)C)cc1NC(=O)c1cnn2cc(-c3cnn4c3OCCC4)sc12 [Example 351, (R)-2-(6,7-dihydro-5H-pyrazolo[5,1-b][1,3]oxazin-3-yl)-N-(5-(2-(1-isopropylpyrrolidin-2-yl)acetamido)-2-methylpyridin-3-yl)pyrazolo[5,1-b]thiazole-7-carboxamide]
IC50 [1]: 0.3 nM | IC50 [2]: 3.1 nM

Cc1ncc(NC(=O)CN2C[C@H](C)O[C@@H](C)C2)cc1NC(=O)c1cnn2cc(-c3cc[nH]c3)sc12 [Example 365, N-(5-(2-(2,6-trans-dimethylmorpholino)acetamido)-2-methylpyridin-3-yl)-2-(1H-pyrrol-3-yl)pyrazolo[5,1-b]thiazole-7-carboxamide]
IC50 [1]: 0.3 nM | IC50 [2]: 2.4 nM

Cc1ncc(NC(=O)CN2C[C@H](C)O[C@@H](C)C2)cc1NC(=O)c1cnn2cc(-c3cnn4c3OCCC4)sc12 (relative stereo) [Example 375, 2-(6,7-dihydro-5H-pyrazolo[5,1-b][1,3]oxazin-3-yl)-N-(5-(2-(trans-2,6-dimethylmorpholino)acetamido)-2-methylpyridin-3-yl)pyrazolo[5,1-b]thiazole-7-carboxamide]
IC50 [1]: 0.6 nM | IC50 [2]: 4.5 nM

Cc1ncc(NC(=O)CN2CC(C)(C)C2)cc1NC(=O)c1cnn2cc(-c3cccnc3C)sc12 [Example 390, N-(5-(2-(3,3-dimethylazetidin-1-yl)acetamido)-2-methylpyridin-3-yl)-2-(2-methylpyridin-3-yl)pyrazolo[5,1-b]thiazole-7-carboxamide]
IC50 [1]: 0.6 nM | IC50 [2]: 10.1 nM

COc1ccc(-c2cn3ncc(C(=O)Nc4cc(NC(=O)CN5CC(C)(C)C5)cnc4C)c3s2)cn1 [Example 395, N-(5-(2-(3,3-dimethylazetidin-1-yl)acetamido)-2-methylpyridin-3-yl)-2-(6-methoxypyridin-3-yl)pyrazolo[5,1-b]thiazole-7-carboxamide]
IC50 [1]: 0.4 nM | IC50 [2]: 7.3 nM

Cc1ncc(NC(=O)CN2CCC(C)(C)C2)cc1NC(=O)c1cnn2cc(-c3cnn(CCO)c3)sc12 [Example 28, N-(5-(2-(3,3-dimethylpyrrolidin-1-yl)acetamido)-2-methylpyridin-3-yl)-2-(1-(2-hydroxyethyl)-1H-pyrazol-4-yl)pyrazolo[5,1-b]thiazole-7-carboxamide]
IC50 [1]: 0.6 nM | IC50 [2]: 4.2 nM

COC/C=C/c1cn2ncc(C(=O)Nc3cc(C(=O)NCCN4CCCC4(C)C)cnc3C)c2s1 [Example 361, (E)-N-(5-((2-(2,2-dimethylpyrrolidin-1-yl)ethyl)carbamoyl)-2-methylpyridin-3-yl)-2-(3-methoxyprop-1-en-1-yl)pyrazolo[5,1-b]thiazole-7-carboxamide]
IC50 [1]: 1.3 nM | IC50 [2]: 19 nM

COc1cccc(-c2cn3ncc(C(=O)Nc4cc(NC(=O)CN5CC(C)(C)C5)cnc4C)c3s2)n1 [Example 394, N-(5-(2-(3,3-dimethylazetidin-1-yl)acetamido)-2-methylpyridin-3-yl)-2-(6-methoxypyridin-2-yl)pyrazolo[5,1-b]thiazole-7-carboxamide]
IC50 [1]: 0.2 nM | IC50 [2]: 1.2 nM

COc1ncccc1-c1cn2ncc(C(=O)Nc3cc(C(=O)NCCN4CC(C)(C)C4)cnc3C)c2s1 [Example 387, N-(5-((2-(3,3-dimethylazetidin-1-yl)ethyl)carbamoyl)-2-methylpyridin-3-yl)-2-(2-methoxypyridin-3-yl)pyrazolo[5,1-b]thiazole-7-carboxamide]
IC50 [1]: 0.2 nM | IC50 [2]: 1.5 nM

COc1ncccc1-c1cn2ncc(C(=O)Nc3cc(NC(=O)CN4CC5(CCOCC5)C4)cnc3C)c2s1 [Example 403, N-(5-(2-(7-oxa-2-azaspiro[3.5]nonan-2-yl)acetamido)-2-methylpyridin-3-yl)-2-(2-methoxypyridin-3-yl)pyrazolo[5,1-b]thiazole-7-carboxamide carboxamide]
IC50 [1]: 0.2 nM | IC50 [2]: 1.3 nM

COc1ncccc1-c1cn2ncc(C(=O)Nc3cc(NC(=O)CN4CC(C)(C)C4)cnc3C)c2s1 [Example 369, N-(5-(2-(3,3-dimethylazetidin-1-yl)acetamido)-2-methylpyridin-3-yl)-2-(2-methoxypyridin-3-yl)pyrazolo[5,1-b]thiazole-7-carboxamide]
IC50 [1]: 0.2 nM | IC50 [2]: 1.4 nM

COc1ncccc1-c1cn2ncc(C(=O)Nc3cc(NC(=O)CN4CC(F)C4)cnc3C)c2s1 [Example 402, N-(5-(2-(3-fluoroazetidin-1-yl)acetamido)-2-methylpyridin-3-yl)-2-(2-methoxypyridin-3-yl)pyrazolo[5,1-b]thiazole-7-carboxamide]
IC50 [1]: 0.3 nM | IC50 [2]: 2.7 nM
